Experimental data published in publication PMC7316778 (Nature Communications, 2020).
Several values for one entry are separate records, joined by “and”; a condition that tells them apart may be missing. Equal values may be shown once. Read-outs that look alike come from different tables or passages of the source.

How the values were obtained:
Assay in all cases: SelectScreen kinase assay
CAMK2D (CaMKII delta) = CAMK2D (CaMKII delta) (Homo sapiens, UniProt Q13557)
Description: (§1) Selectivity profiling assays were performed by the Invitrogen SelectScreen™ Services. […] The concentration of ATP was selected to be equal to the KM, unless indicated otherwise.

CDK18/cyclin Y = CDK18/cyclin Y (Homo sapiens, UniProt Q07002); details: for Inhibition at 1 µM (%): CDK18/cyclin Y, ZLYTE, ATP Km app
Description: as §1

CLK3 = CLK3 (Homo sapiens, UniProt P49761)
Description: as §1

DDR1 = DDR1 (Homo sapiens, UniProt Q08345)
Description: as §1

DYRK2 = target: T1, DYRK2 (Homo sapiens, UniProt Q92630); details: for Inhibition at 1 µM (%): DYRK2, LanthaScreen Binding
T1 sequence (Q92630 1-601): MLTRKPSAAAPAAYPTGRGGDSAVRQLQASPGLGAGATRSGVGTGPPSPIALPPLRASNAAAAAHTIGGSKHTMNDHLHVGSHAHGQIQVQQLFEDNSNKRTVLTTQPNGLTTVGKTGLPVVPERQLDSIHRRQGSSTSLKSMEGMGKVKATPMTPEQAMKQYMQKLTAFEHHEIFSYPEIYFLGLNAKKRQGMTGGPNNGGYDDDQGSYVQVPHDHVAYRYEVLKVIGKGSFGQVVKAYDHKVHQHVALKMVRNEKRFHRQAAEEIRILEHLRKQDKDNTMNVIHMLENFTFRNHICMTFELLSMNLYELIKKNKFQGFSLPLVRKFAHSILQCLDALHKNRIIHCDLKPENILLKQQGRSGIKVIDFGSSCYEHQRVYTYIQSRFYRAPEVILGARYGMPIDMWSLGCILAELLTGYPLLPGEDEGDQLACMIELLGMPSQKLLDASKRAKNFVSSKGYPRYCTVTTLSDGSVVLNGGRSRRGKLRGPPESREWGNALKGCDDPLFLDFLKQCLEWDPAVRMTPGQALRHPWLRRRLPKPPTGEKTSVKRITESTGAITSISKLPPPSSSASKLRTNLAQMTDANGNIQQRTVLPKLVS
Description: as §1

LATS2 = target: T2, LATS2 (Homo sapiens, UniProt Q9NRM7); details: for Inhibition at 1 µM (%): LATS2, LanthaScreen Binding
T2 sequence (Q9NRM7 1-1088): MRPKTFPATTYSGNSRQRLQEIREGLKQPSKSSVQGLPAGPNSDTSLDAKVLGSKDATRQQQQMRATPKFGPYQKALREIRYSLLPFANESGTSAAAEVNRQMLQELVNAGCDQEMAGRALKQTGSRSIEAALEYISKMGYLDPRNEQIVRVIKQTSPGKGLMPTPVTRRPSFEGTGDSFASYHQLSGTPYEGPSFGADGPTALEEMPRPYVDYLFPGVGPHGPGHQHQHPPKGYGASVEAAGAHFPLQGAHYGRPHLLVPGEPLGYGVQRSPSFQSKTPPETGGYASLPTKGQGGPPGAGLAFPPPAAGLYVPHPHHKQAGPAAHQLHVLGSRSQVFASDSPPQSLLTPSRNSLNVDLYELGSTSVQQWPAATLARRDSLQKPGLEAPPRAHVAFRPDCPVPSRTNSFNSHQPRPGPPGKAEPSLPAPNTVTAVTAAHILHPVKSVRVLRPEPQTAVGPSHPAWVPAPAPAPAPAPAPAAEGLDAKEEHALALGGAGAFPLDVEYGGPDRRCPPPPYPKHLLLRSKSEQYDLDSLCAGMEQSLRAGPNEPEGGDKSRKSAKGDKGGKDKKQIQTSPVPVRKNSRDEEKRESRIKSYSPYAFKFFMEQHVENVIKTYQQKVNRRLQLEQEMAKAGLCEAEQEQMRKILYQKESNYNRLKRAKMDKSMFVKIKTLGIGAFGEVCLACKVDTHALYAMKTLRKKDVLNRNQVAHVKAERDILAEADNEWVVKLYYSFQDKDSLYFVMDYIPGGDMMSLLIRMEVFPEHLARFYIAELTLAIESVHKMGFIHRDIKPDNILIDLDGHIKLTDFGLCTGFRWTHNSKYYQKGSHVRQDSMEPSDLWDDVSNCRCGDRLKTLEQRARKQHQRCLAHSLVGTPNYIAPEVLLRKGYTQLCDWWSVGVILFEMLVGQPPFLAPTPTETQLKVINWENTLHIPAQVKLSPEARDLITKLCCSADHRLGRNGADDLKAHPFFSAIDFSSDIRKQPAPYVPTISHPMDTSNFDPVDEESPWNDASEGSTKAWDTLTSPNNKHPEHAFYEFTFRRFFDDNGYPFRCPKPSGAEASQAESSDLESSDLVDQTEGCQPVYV
Description: as §1

LRRK2 FL = LRRK2 FL (Homo sapiens, UniProt Q5S007)
Description: as §1

PAK7 (KIAA1264) = PAK7 (KIAA1264) (Homo sapiens, UniProt Q9P286)
Description: as §1

PIK3C2G (PI3K-C2 gamma) = PIK3C2G (PI3K-C2 gamma) (Homo sapiens, UniProt O75747)
Description: as §1

PRKCB2 (PKC beta II) = PRKCB2 (PKC beta II) (Homo sapiens, UniProt P05771); details: 1 h, 1 μM WEL028, 1 h preincubation
Description: as §1

PRKCQ (PKC theta) = PRKCQ (PKC theta) (Homo sapiens, UniProt Q04759); details: 1 h, 1 μM WEL028, 1 h preincubation
Description: as §1

RIPK2 = RIPK2 (Homo sapiens, UniProt O43353)
Description: as §1

SIK3 = SIK3 (Homo sapiens, UniProt Q9Y2K2)
Description: as §1

TYK2 = TYK2 (Homo sapiens, UniProt P29597)
Description: as §1

[1] = 1 h, 1 μM WEL028, 1 h preincubation

Sequence of SIK3 (Q9Y2K2 whole entry): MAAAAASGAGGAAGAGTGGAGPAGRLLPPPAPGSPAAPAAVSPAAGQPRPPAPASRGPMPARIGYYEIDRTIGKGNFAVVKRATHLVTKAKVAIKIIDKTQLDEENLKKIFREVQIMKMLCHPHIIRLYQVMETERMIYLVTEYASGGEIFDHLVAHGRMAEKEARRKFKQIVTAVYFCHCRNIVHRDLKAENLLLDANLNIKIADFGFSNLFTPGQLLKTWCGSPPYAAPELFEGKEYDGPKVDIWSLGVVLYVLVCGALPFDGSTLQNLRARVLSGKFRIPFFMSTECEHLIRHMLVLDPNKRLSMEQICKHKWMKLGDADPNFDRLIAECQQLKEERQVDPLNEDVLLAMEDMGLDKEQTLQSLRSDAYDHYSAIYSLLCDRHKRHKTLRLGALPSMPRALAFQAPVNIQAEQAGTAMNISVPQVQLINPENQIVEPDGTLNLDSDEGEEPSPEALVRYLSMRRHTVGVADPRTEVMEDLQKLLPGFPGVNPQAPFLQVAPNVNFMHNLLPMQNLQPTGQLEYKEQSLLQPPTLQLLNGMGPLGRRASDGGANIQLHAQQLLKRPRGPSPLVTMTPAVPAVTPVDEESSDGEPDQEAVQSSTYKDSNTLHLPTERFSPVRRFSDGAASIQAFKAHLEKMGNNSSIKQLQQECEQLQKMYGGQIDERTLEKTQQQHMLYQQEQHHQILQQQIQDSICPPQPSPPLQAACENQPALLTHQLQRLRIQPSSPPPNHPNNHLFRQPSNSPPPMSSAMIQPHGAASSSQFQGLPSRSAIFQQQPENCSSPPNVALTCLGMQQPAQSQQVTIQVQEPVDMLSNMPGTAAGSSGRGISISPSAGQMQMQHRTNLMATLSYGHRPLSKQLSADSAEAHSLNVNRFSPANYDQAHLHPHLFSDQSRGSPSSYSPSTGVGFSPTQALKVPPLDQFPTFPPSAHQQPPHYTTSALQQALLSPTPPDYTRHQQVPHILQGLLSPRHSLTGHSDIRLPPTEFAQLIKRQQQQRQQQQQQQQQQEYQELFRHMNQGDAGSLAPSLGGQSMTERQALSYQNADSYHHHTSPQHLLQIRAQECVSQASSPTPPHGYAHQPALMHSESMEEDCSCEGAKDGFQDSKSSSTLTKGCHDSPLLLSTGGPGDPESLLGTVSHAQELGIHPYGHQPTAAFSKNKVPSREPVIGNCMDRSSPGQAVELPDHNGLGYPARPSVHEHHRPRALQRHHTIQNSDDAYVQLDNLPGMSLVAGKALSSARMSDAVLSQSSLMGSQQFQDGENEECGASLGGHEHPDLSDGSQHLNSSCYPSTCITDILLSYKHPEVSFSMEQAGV
Sequence of TYK2 (P29597 whole entry): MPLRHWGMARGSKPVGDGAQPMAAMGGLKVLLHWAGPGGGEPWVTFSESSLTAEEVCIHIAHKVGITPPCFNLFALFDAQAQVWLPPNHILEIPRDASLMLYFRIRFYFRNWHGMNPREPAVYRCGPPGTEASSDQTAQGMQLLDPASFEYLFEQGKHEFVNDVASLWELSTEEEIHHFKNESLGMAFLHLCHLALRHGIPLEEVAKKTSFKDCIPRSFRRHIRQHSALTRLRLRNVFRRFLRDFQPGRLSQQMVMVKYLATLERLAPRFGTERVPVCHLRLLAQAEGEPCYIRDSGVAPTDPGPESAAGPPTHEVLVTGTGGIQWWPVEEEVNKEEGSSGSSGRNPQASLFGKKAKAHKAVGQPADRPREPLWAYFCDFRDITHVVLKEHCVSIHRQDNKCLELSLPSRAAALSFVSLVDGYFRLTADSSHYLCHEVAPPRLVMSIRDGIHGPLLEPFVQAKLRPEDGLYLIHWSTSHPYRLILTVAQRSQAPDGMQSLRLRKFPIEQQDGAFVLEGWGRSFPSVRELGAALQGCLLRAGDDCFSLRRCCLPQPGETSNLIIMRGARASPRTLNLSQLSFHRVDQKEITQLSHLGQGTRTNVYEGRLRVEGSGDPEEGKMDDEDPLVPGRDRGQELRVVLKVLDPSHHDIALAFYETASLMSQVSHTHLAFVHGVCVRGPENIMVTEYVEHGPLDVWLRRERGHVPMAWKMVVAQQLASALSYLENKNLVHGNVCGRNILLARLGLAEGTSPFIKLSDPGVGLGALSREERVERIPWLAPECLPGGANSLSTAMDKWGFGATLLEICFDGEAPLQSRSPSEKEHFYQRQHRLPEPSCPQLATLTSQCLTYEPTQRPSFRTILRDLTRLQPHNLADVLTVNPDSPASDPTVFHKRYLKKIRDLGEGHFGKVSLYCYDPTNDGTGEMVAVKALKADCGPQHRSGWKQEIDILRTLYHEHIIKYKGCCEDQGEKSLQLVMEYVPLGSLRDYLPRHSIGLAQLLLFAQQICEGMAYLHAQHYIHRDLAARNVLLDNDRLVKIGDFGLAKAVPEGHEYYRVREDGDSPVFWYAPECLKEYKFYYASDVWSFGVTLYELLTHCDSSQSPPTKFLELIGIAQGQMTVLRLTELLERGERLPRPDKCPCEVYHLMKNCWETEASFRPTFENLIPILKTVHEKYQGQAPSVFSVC
Sequence of CDK18/cyclin Y (Q07002 whole entry): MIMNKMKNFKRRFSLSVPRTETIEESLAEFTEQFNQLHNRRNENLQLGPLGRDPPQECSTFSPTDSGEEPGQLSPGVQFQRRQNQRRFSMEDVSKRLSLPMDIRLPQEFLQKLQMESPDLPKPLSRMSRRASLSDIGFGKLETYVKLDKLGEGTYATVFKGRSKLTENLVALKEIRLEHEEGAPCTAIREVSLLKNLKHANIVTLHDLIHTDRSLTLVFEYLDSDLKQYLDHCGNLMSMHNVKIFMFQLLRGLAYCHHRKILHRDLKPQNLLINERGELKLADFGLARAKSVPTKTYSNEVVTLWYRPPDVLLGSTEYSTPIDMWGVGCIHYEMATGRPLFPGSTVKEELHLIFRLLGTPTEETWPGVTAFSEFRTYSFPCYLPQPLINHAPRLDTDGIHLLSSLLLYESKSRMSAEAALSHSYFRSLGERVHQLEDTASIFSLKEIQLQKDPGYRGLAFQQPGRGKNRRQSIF
Sequence of CDK18/cyclin Y (Q8ND76 whole entry partner): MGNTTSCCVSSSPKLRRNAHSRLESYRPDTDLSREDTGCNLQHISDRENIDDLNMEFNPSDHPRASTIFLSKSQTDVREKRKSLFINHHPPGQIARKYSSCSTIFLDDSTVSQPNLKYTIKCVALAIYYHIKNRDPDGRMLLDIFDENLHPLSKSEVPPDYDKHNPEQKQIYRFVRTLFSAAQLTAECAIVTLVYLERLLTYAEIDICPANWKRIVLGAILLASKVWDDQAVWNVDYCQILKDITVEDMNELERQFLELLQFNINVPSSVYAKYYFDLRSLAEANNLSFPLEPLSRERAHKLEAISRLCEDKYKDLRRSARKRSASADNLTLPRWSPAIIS
Sequence of PAK7 (KIAA1264) (Q9P286 whole entry): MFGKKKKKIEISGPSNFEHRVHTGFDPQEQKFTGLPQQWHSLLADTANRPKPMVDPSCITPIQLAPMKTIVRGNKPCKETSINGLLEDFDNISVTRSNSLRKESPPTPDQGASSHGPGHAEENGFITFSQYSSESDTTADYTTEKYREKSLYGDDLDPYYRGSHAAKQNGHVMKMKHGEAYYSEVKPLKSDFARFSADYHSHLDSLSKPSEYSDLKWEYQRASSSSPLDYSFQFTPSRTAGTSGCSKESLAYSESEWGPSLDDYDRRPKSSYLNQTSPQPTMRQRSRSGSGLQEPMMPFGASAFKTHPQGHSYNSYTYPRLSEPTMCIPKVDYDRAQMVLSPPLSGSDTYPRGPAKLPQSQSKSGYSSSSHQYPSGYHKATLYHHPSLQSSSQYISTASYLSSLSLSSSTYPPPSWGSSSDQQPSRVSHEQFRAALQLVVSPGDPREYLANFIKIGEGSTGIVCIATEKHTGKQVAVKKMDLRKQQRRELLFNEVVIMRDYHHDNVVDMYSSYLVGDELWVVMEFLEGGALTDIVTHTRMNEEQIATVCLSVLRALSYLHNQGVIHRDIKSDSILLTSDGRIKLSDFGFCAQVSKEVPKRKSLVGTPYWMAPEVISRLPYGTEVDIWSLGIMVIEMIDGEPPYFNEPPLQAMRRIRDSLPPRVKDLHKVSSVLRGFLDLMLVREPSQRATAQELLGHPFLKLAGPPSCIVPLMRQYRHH
Sequence of CLK3 (P49761 whole entry): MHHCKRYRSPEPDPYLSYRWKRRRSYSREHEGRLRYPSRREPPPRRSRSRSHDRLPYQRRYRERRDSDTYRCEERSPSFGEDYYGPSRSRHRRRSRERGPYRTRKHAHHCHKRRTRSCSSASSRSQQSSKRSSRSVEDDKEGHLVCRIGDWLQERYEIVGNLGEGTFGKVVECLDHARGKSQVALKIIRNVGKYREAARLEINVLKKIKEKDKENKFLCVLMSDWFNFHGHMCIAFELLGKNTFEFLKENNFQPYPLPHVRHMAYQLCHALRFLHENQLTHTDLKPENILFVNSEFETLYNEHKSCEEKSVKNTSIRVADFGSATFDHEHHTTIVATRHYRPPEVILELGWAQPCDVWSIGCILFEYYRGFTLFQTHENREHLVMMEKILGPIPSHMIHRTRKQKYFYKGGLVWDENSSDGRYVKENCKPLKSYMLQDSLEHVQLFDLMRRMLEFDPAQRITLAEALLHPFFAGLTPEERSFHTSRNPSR
Sequence of RIPK2 (O43353 whole entry): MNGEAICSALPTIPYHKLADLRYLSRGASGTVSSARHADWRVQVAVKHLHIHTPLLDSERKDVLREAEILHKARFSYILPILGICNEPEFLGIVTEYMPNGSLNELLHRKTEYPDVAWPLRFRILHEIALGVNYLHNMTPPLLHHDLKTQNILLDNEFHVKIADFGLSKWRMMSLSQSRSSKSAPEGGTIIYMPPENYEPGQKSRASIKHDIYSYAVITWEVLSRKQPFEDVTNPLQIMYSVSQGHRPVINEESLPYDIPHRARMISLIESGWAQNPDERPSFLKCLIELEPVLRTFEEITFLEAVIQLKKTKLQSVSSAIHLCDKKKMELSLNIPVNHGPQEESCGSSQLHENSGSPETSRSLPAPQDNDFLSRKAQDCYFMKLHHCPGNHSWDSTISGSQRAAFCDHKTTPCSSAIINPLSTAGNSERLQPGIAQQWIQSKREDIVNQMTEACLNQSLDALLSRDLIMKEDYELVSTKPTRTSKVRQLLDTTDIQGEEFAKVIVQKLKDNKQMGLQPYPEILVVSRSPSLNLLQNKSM

C#CCOc1ccc(Nc2ncc(Cl)c(Nc3ccccc3NC(=O)C=C)n2)c(OC)c1 [Compound 6]
inhibition at 1 µM (CAMK2D (CaMKII delta); [1]): 8% | Inhibition at 1 µM (%) (CAMK2D (CaMKII delta); CAMK2D (CaMKII delta), 1 µM, ZLYTE, ATP Km app): 15% | inhibition at 1 µM (CDK18/cyclin Y; [1]): 1% | Inhibition at 1 µM (%) (CDK18/cyclin Y): 3% | Inhibition at 1 µM (%) (CDK18/cyclin Y; listed as WEL028, 1 µM): -1% | inhibition at 1 µM (CLK3; [1]): 11% | Inhibition at 1 µM (%) (CLK3; CLK3, 1 µM, ZLYTE, ATP Km app): 23% | inhibition at 1 µM (DDR1; [1]): -2% | Inhibition at 1 µM (%) (DDR1; DDR1, 1 µM, LanthaScreen Binding, listed as WEL028, 1 µM): -3% | inhibition at 1 µM (DYRK2; [1]): 7% | Inhibition at 1 µM (%) (DYRK2): 11% | Inhibition at 1 µM (%) (DYRK2; listed as WEL028, 1 µM): 4% | Inhibition (%) (LATS2; 1 μM WEL028, 1 h preincubation): 2% | Inhibition at 1 µM (%) (LATS2): 3% | Inhibition at 1 µM (%) (LATS2; listed as WEL028, 1 µM): 0% | inhibition at 1 µM (LRRK2 FL; [1]): 97% | inhibition at 10 µM (LRRK2 FL; 1 h, log[inhibitor] (M) -5.00, Adapta, ATP Km app): 100% | inhibition at 3.311 µM (LRRK2 FL; 1 h, log[inhibitor] (M) -5.48, Adapta, ATP Km app): 100% | inhibition at 1.122 µM (LRRK2 FL; 1 h, log[inhibitor] (M) -5.95, Adapta, ATP Km app): 100% | inhibition at 0.3715 µM (LRRK2 FL; 1 h, log[inhibitor] (M) -6.43, Adapta, ATP Km app): 100% | inhibition at 0.123 µM (LRRK2 FL; 1 h, log[inhibitor] (M) -6.91, Adapta, ATP Km app): 86% | inhibition at 0.04074 µM (LRRK2 FL; 1 h, log[inhibitor] (M) -7.39, Adapta, ATP Km app): 39% | Inhibition at 1 µM (%) (LRRK2 FL; LRRK2 FL, 1 µM, Adapta, ATP Km app, listed as WEL028, 1 µM): 96% | inhibition at 1 µM (LRRK2 FL; read-out: Inhibition at 1 µM (%), LRRK2 FL, 1 µM, Adapta, ATP Km app): 98% | inhibition at 1 µM (PAK7 (KIAA1264); [1]): 12% | Inhibition at 1 µM (%) (PAK7 (KIAA1264); PAK7 (KIAA1264), 1 µM, ZLYTE, ATP Km app, listed as WEL028, 1 µM): 15% | inhibition at 1 µM (PAK7 (KIAA1264); read-out: Inhibition at 1 µM (%), PAK7 (KIAA1264), 1 µM, ZLYTE, ATP Km app): 10% | inhibition at 1 µM (PIK3C2G (PI3K-C2 gamma); [1]): -3% | Inhibition at 1 µM (%) (PIK3C2G (PI3K-C2 gamma); PIK3C2G (PI3K-C2 gamma), 1 µM, Adapta, ATP 10, listed as WEL028, 1 µM): -1% and -6% | inhibition at 1 µM (PRKCB2 (PKC beta II)): 0% | inhibition at 1 µM (PRKCQ (PKC theta)): 8% | inhibition at 1 µM (RIPK2; 1 h): 1% | inhibition at 1 µM (RIPK2; read-out: Inhibition at 1 µM (%)): 1% | Inhibition (%) (SIK3; 1 μM WEL028, 1 h preincubation): 2% | Inhibition at 1 µM (%) (SIK3; 1 µM, LanthaScreen Binding, listed as WEL028, 1 µM): 0% and 5% | Inhibition (%) (TYK2; 1 μM WEL028, 1 h preincubation): -1% | Inhibition at 1 µM (%) (TYK2; 1 µM, ZLYTE, ATP Km app, listed as WEL028, 1 µM): -6% and 4%
